In patent US20120083473A1, “TREATMENT OF CONDITIONS BY TOLL-LIKE RECEPTOR MODULATORS” (priority 2010, published 2012):

Legend:
[1] = test system: Bleomycin-induced fibrosis in C57BU6 mice; test: Bleomycin-induced lung fibrosis in mice; assay type: in vivo; settings: 500 nmol/animal s.c. daily; day 7 and day 21; ELISA
Description: The efficacy of Compound 2 on mouse models of idiopathic lung fibrosis was studied as follows. Lung fibrosis was induced in 6-8 week old female C57BU6 mice. 0.8 U/kg of bleomycin (Hospira, Inc., Lake Forest, Ill.) was administered by intratracheal (i.t.) instillation on day 0. Bleomycin treated C57BU6 mice were divided into four groups (n 7 per group). Groups 2 and 4 were subcutaneously treated with Compound 2 at daily dose of 500 nmol/animal. Groups 1 and 3 were treated with saline control. Groups 1 and 2 were sacrificed on day 7 and groups 3 and 4 were sacrificed on day 21.
Measurements: Lung inflammation and fibrosis were evaluated by the following parameters: 1) cell infiltration to bronchial alveolar lavage (BAL); BAL were collected at the time of sacrifice and cell number was counted by hematocytometer. The infiltrated cells were differentiated by Wright-Giemsa staining. 2) BAL cytokines (IL-6, and IL-1b) by ELISA). 3) Lung histology by H&E staining and Sirius red staining (fibrosis). Histological samples were evaluated blindly.

human monocytes (Mo) [2] = test: Cross-tolerance toward TLR ligands in human monocytes (gene expression); assay type: cell-based
Description: To evaluate the effects of TMX on human cell activation, monocytes were isolated from buffy coats obtained from four different healthy donors. With respect to macrophage tolerance, cells were treated with Compound 2 (10 microM) up to 20 hours and then re-challenged with agonists/ligands of different TLRs (TLR2, TLR4, TLR5, TLR9, TLR7, etc. . . . ), including the TLR7 unconjugated ligand 1V209 (free pharmacophore) at a concentration of 10 microM.
(§1) Cell Culture and treatments. Monocytes (Mo) were obtained from buffycoats collected from healthy donors as previously described (Porta C et al, PNAS 2009). Cells were incubated in RPMI 1640 medium, containing 10% fetal bovine serum, 2 mM glutamine and 100 U/ml of penicillin-streptomycin. The concentrations for the different treatments were as follows: LPS (100 ng/ml) (Lipopolysaccharide from Salmonella Abortus Equi S-form, Alexis), CpG (1 microg/ml), Pam3CSK (2 microg/ml), Poly I:C (10 microg/ml), Loxorubine (100 microM), flagellin (100 ng/ml). To induce TMX tolerance, cells were incubated in the presence of TMX (10 microM) for 20 hrs, washed and maintained in RPMI medium for 2 hrs and then re-challenged with TMX (10 microM) for 4 hrs. To induce TMX-tolerization (T/M) cells were treated with TMX for 20 hrs, washed and then maintained in medium for additional 6 hours, without TMX re-challenge. To induce M1-activation cells were incubated in medium for 20 hrs, washed, left in medium for 2 hrs and finally stimulated with TMX (10 microM) for 4 hrs. Control cells (M/M) were cultured in medium for the entire period of the experiment. For gene expression analysis, total RNA was extracted from TMX treated and untreated cells with trizol (Invitrogen), according to the manufacturer's instructions. To analyze cytokines and chemokines production supernatants were collected 24 hrs after the second challenge with TMX.
Real-Time PCR. Total RNA was purified as previously described. Briefly, reverse transcription from 1 microgram of RNA was performed using a cDNA Archive kit (Applied Biosystem, NJ, USA). Real time PCR was performed using Power Syber Green PCR Master Mix (Applied Biosystem, NJ, USA) and detected by 7900HT Fast Real-Time System (Applied Biosystem, NJ, USA). Data were processed using the SDS2.2.2 software (Applied Biosystem, NJ, USA). Results were normalized to the expression of the housekeeping gene 8-actin and then expressed as folds of upregulation, with respect to the control cell population.

human monocytes (Mo) [3] = test: Cytokine/chemokine secretion by TMX-tolerant human monocytes (ELISA); assay type: cell-based
Description: as §1
ELISA. Cell-free supernatants were tested by ELISA for the indicated cytokines/chemokines. Human TNF-alpha, IL-6, IL-1beta, IL-10, CCL17 and CCL22 ELISA kits were purchased from R&D Systems (Minneapolis, Minn.).

[4] = TMX-tolerized cells re-challenged with TMX or 1V209

`COCCOc1nc(N)c2nc(O)n(Cc3ccc(C(=O)NCCOCCOCCOCCOCCOCCOCCn4cc(CCC(=O)O)nn4)cc3)c2n1` [Compound 2] was tested, and the “levels of IL-6 and IL-1b cytokines in BAL” value [1] was “under the detection levels of ELISA”, the “TNFalpha, IL-1 beta, IL-6 and IL-12 gene expression in response to TLR ligands” value (human monocytes (Mo) [2]; Mo tolerized by 20 hours pre-treatment, excluding Pam) was “inability to up-regulate” and the “down-regulation of M1 marker IL-12p40” value (human monocytes (Mo) [2]; TMX pretreatment, stimulation through TLRs other than TLR7) was roughly 10 fold. The “M2 gene induction, CCL17 in particular” value (human monocytes (Mo) [2]; TMX treatment, TLR agonist re-challenge) was “strongly enhanced”, the “Th2-recruiting chemokines genes (CCL17, CCL22) on TLR engagement” value (human monocytes (Mo) [2]; tolerized Mo, but not IL-10) was “trigger the expression” and the “levels of IL-10 in the supernatant of TMX-tolerant monocytes” value (human monocytes (Mo) [3]) was “decreased”. For the same compound, the “secretion of selected M2 markers (CCL17 and CCL22)” value (human monocytes (Mo) [3]; TMX-tolerized Mo from 2 out of 4 healthy donors) was “significantly augmented”, the “CCL17 and CCL22 secretion” value (human monocytes (Mo) [3]; [4]) was “induction” and the “TNFalpha and IL-6 secretion” value (human monocytes (Mo) [3]; [4]) was “inhibition”. For the same compound, the “IL-10 production by Compound 2-conditioned cells” value (human monocytes (Mo) [3]; as stated in comparison of human and mouse data) was “increased”, the “TNF and IL-6 secretion” value (human monocytes (Mo) [3]; cells tolerized with TMX and re-challenged with TLR agonists, except for LPS) was “decreased” and the “IL-1beta production in TMX-tolerized cells” value (human monocytes (Mo) [3]; re-challenged with TLR agonists) was “all TLR agonists promote IL-1beta production”.
